Experiment: Water solubility at room temperature (shake 5 hours, filtered supernatant, HPLC with calibration curve)
Format: physicochemical
Conditions: shaken 5 hours
Protocol: An adequate amount of each sample was taken. Water (50% v/v) was added to each sample, and the mixture was shaken at room temperature for 5 hours. The supernatant was filtered through a filter, and diluted with a mixed solution of water 0.1% TFA/acetonitrile as necessary to give a sample solution. The concentration (mg/ml) of the sample solution was measured by high performance liquid chromatography (HPLC) with a calibration curve method, and taken as the solubility in water at room temperature.
HPLC Analysis Conditions:
HPLC purifications and analyses were carried out using an LC200 series Perkin Elmer apparatus, and diode array UV detector, using an Ultrasep C18 RP 100 column from Bischoff Chromatography.

Row | Solubility in water at room temperature [µg/mL] | Substance
1 | 4500 | 5alpha-Hydroxy-6beta-[2-(1H-imidazol-4-yl)ethylamino]cholestan-3beta-ol, acetate [Example 14]
2 | 11000 | 5alpha-Hydroxy-6beta-[2-(1H-imidazol-4-yl)ethylamino]cholestan-3beta-ol, mesylate [Example 13]
3 | 1400 | 5alpha-Hydroxy-6beta-[2-(1H-imidazol-4-yl)ethylamino]cholestan-3beta-ol, pamoate [Example 7]

Reference: patent US20140274984A1, “ACID ADDITION SALTS OF 5ALPHA-HYDROXY-6BETA-[2-(1H-IMIDAZOL-4-YL)ETHYLAMINO]CHOLESTAN-3BETA-OL” (INSERM (INSTITUT NATIONAL DE LA SANTÉ ET DE LA RECHERE …, priority 2011, published 2014)
